Experimental data from US6764854B2, “Methods for generating doubled haploid plants” (Northwest Plant Breeding Company, priority 1998, dated 2004).
Several values for one entry are separate records, joined by “and”; a condition that tells them apart may be missing. Equal values may be shown once.

What was measured:
Pavon 76 microspores = assay: Optimization of 2,4-D concentration, embryoid yield, green plants and doubled haploids (Example 5); assay type: cell-based, wheat
Protocol: (§1) Pretreatment of Spikes. After removing the lower nodal section, the collected tillers are placed in an autoclaved sterile flask, containing 50 ml of sterile (autoclaved) distilled water and preferably 0.1% (w/v) 2-HNA and 10^−6 to 10^−5 M 2,4-D. The open end of a plastic bag (thin-walled, grocery store bag) is then wrapped around the neck of the flask and sealed around the neck with masking tape to prevent microbial contamination and excessive loss of water. The flask is then placed in an incubator set at the desired stress temperature, optionally 33° C., but the temperature employed may be higher or lower. The optimum period of pretreatment varies with the genotype, but is preferably from between about 0.5 hours and about 72 hours, depending on the temperature. A presently preferred temperature pretreatment regime is from about 48 hours to about 72 hours at a temperature of about 33° C. The flask containing tillers can also be stored in a refrigerator at 4° C. for up to 1 month before subjecting the microspores to temperature stress treatment. It is important that after the temperature stress treatment, the tillers should not be stored in a refrigerator at 4° C. because the microspore viability goes down sharply.
(§2) Culture of isolated microspores. Isolated microspores are cultured in liquid NPB 98-1 medium or liquid NPB-99 medium, preferably liquid NPB-99 medium, as a suspension culture. An aliquot of 2 ml media per 35 mm×10 mm Petri dish, or 5 ml media per 60 mm×15 mm Petri dish, at a density of approximately 1.5×10^4 microspores per ml is effective. Immature ovaries are added to the culture at a density of one per ml of medium immediately preceding the incubation. Ovaries are aseptically picked out from fresh and disinfected spikes. Ovaries of all genotypes are effective for the present invention, but the ovaries from varieties Chris or Pavon 76 are preferred for embryogenesis of all wheat varieties tested. The Petri dish is sealed with parafilm and incubated in the dark at 27° C.
(§3) When embryoids reach the size of 1 to 2 mm, they are transferred aseptically to solid 190-2 or 190-2(b) medium, preferably 190-2(b) medium, at a density of 25-30 embryoids in each 100×15 mm Petri dish. They are incubated under continuous fluorescent light at room temperature (22° C.). In approximately two weeks, green plantlets develop and are ready for transfer to soil. Green plants are raised in the greenhouse, much like plants grown from seeds. If plants appear to be haploid, colchicine can be applied to induce chromosome doubling. Seeds produced on any plants are instantly homozygous, and so can immediately be used for rapid evaluation and selection in breeding, for analyses in genetics research, or for selection and evaluation of transformants in biotechnology.
Experiments were conducted to optimize the amount of 2,4-D utilized to induce androgenesis and regeneration of green plants. Plant material was treated in accordance with the methods set forth in Example 1, except as described herein. Spikes of wheat cultivar Pavon 76 were treated with 2,4-D at concentrations of 0, 0.2, 2.2, or 22.1 mg/l plus a fixed dose of 2-HNA at 100 mg/l. Two spikes were utilized per treatment.
Spikes were incubated in sterile flasks with 2-HNA plus different doses of 2,4-D. The flasks were incubated at 33° C. for 46 hours before blending to release microspores. Microspores were cultured in 6-cm Petri dishes, each containing 5 ml medium NPB 98-1 plus 0 or 0.2 mg/l 2,4-D and incubated at 27° C. The regeneration medium was 190-2. Five fresh, live, immature Chris ovaries per Petri dish were included in each Petri dish.

[1] = system: microspores of wheat cultivar Chris; assay: Optimization of 2,4-D concentration, embryoid yield and green plants (Example 4); assay type: cell-based
Protocol: as §1, §2, §3
Experiments were conducted to optimize the amount of 2,4-D utilized to enhance androgenesis and regeneration of green plants. Plant material was treated in accordance with the methods set forth in Example 1, except as described herein. Tillers of wheat cultivar Chris were treated with 2,4-D at concentrations of 0.2, 22.1, or 221 mg/l plus a fixed dose of 2-HNA at 100 mg/l. Two tillers were utilized per treatment.
Tillers in flasks with 2-HNA, plus different 2,4-D doses were placed at 33° C. for 70 hours before blending to release microspores. Microspores were cultured in 60×15 mm Petri dishes, each containing 5 ml medium NPB 98-1 plus 1 mg/l 2,4-D and incubated at 27° C. The regeneration medium was 190-2. Five fresh, live, immature Chris ovaries per Petri dish were included in each Petri dish.

[2] = system: microspores of wheat cultivar Chris; assay: Effect of 2-HNA concentration on embryoid induction and green plant regeneration (Example 2); assay type: cell-based
Protocol: as §1, §2, §3
Experiments were conducted to evaluate the effect of 2-HNA on embryoid induction and green plant regeneration. Plant material was treated in accordance with the methods set forth in Example 1, except as described herein. Tillers of wheat cultivar Chris were treated with 2-HNA at concentrations of 0, 1, 10 or 100 mg/l. Three tillers were utilized for each concentration of 2-HNA.
Chris tillers were placed in sterile flasks and incubated with 2-HNA dissolved in sterile water at 33° C. for 66 hours before blending to release the microspores. As an option to ease the work schedule, newly sampled tillers may be incubated with 2-HNA at 4° C. for up to 72 hrs prior to the 33° C. treatment. Isolated microspores were cultured in 60×15 mm Petri dishes each containing 5 ml of medium NPB 98-1, including 1 mg/l phenylacetic acid (PAA) and incubated at 27° C. The regeneration medium was 190-2. Five fresh, live, Chris ovaries per Petri dish were included in each Petri dish.

[3] = system: microspores of wheat cultivar Pavon 76; assay: Optimization of 2-HNA concentration, embryoid yield and green plants (Example 3); assay type: cell-based
Protocol: as §1, §2, §3
Experiments were conducted to optimize the amount of 2-HNA utilized to stimulate androgenesis and regeneration of green plants. Plant material was treated in accordance with the methods set forth in Example 1, except as described herein. Tillers of wheat cultivar Pavon 76 were treated with 2-HNA at concentrations of 0, 100, 500 or 1000 mg/l. Two tillers were utilized per treatment.
Tillers were placed in sterile flasks containing 50 ml 2-HNA solution and incubated at 33° C. for 46 hours before blending to release microspores. Microspores were again cultured in 60×15 mm Petri dishes, each containing 5 ml medium NPB 98-1 and incubated at 27° C. The regeneration medium was 190-2. Five fresh, live, immature Pavon 76 ovaries per Petri dish were included in each Petri dish.

[4] = pretreatment 2,4-D 0.2 mg/l + 2-HNA 100 mg/l, mean
[5] = pretreatment 2,4-D 0.2 mg/l + 2-HNA 100 mg/l, single repeats
[6] = pretreatment 2,4-D 2.2 mg/l + 2-HNA 100 mg/l, mean
[7] = pretreatment 2,4-D 2.2 mg/l + 2-HNA 100 mg/l, single repeats
[8] = pretreatment 2,4-D 22.1 mg/l + 2-HNA 100 mg/l, mean
[9] = pretreatment 2,4-D 22.1 mg/l + 2-HNA 100 mg/l, single repeats
[10] = pretreatment 2-HNA 100 mg/l, 2,4-D 0 mg/l, mean
[11] = 2-HNA 100 mg/l, % of embryoids transferred to regeneration medium, single repeats

O=C(O)COc1ccc(Cl)cc1Cl [2,4-D, 2,4-dichlorophenoxyacetic acid]
2,4-D concentration during the pretreatment at which number of induced embryoids and percentage of regenerated green plants were highest (Pavon 76 microspores; plus 2-HNA 100 mg/l): 2.2 mg/L
Number of embryoids (Pavon 76 microspores; pretreatment 2,4-D 0.2 mg/l + 2-HNA 100 mg/l, induction medium 2,4-D 0.2 mg/l, single repeats): 1200 and 1121
Number of embryoids (Pavon 76 microspores; [4]): 1161
green plant (%) (Pavon 76 microspores; [4]): 9%
green plant (%) (Pavon 76 microspores; [5]): 9%
Number of embryoids (Pavon 76 microspores; pretreatment 2,4-D 2.2 mg/l + 2-HNA 100 mg/l, induction medium 2,4-D 0.2 mg/l, single repeats): 1675 and 1634
Number of embryoids (Pavon 76 microspores; [6]): 1655
green plant (%) (Pavon 76 microspores; [6]): 30%
Doubled-Haploid % (Pavon 76 microspores; [7]): 50% and 38%
green plant (%) (Pavon 76 microspores; [7]): 31% and 28%
Number of embryoids (Pavon 76 microspores; pretreatment 2,4-D 22.1 mg/l + 2-HNA 100 mg/l, induction medium 2,4-D 0.2 mg/l, single repeats): 1119 and 1012
Number of embryoids (Pavon 76 microspores; [8]): 1066
green plant (%) (Pavon 76 microspores; [8]): 18%
Doubled-Haploid % (Pavon 76 microspores; [9]): 17%
2,4-D concentration during the pretreatment at which number of induced embryoids and percentage of regenerated green plants were highest ([1]; plus 2-HNA 100 mg/l): 1 mg/L
Number of embryoids ([1]; pretreatment 2,4-D 0.2 mg/l + 2-HNA 100 mg/l, 33° C. 70 hours, induction medium 2,4-D 1 mg/l, single repeats): 2088 and 2107
Number of embryoids [1, 4]: 2098
green plant (%) [1, 4]: 92%
green plant (%) [1, 5]: 83% and 100%
Number of embryoids ([1]; pretreatment 2,4-D 22.1 mg/l + 2-HNA 100 mg/l, 33° C. 70 hours, induction medium 2,4-D 1 mg/l, single repeats): 1908 and 1156
Number of embryoids [1, 8]: 1532
green plant (%) [1, 8]: 71%
green plant (%) [1, 9]: 63% and 79%
Number of embryoids ([1]; pretreatment 2,4-D 221 mg/l + 2-HNA 100 mg/l, 33° C. 70 hours, induction medium 2,4-D 1 mg/l, single repeats): 0
Number of embryoids ([1]; pretreatment 2,4-D 221 mg/l + 2-HNA 100 mg/l, mean): 0

O=C(O)c1cccnc1O [2-HNA, 2-hydroxynicotinic acid]
Number of embryoids (Pavon 76 microspores; pretreatment 2-HNA 100 mg/l, 2,4-D 0 mg/l, induction medium 2,4-D 0, 33° C. 46 hours, single repeats): 603 and 607
Number of embryoids (Pavon 76 microspores; [10]): 605
green plant (%) (Pavon 76 microspores; [10]): 19%
green plant (%) (Pavon 76 microspores; pretreatment 2-HNA 100 mg/l, 2,4-D 0 mg/l, single repeats): 13% and 25%
number of induced embryoids, dependence on concentration ([2]; 2-HNA 0, 1, 10 or 100 mg/l): increases with increasing concentrations of 2-HNA
percentage of regenerated green plants, dependence on concentration ([2]; 2-HNA 0, 1, 10 or 100 mg/l): does not significantly differ
green plant (%) ([2]; 2-HNA 1 mg/l, % of embryoids transferred to regeneration medium, single repeats): 100%
Number of embryoids ([2]; 2-HNA 1 mg/l, mean): 118
green plant (%) ([2]; 2-HNA 1 mg/l, mean): 100%
green plant (%) ([2]; 2-HNA 10 mg/l, % of embryoids transferred to regeneration medium, single repeats): 94% and 100%
Number of embryoids ([2]; 2-HNA 10 mg/l, mean): 322
green plant (%) ([2]; 2-HNA 10 mg/l, mean): 97%
Number of embryoids ([2]; 2-HNA 100 mg/l, 33° C. 66 hours, single repeats (rep 1, rep 2)): 1258 and 1217
green plant (%) [2, 11]: 100%
Number of embryoids ([2]; 2-HNA 100 mg/l, mean): 1238
green plant (%) ([2]; 2-HNA 100 mg/l, mean): 100%
green plant (%) [3, 11]: 60% and 67%
# embryoids ([3]; 2-HNA 100 mg/l, mean): 1356
green plant (%) ([3]; 2-HNA 100 mg/l, mean): 63%
green plant (%) ([3]; 2-HNA 500 mg/l, % of embryoids transferred to regeneration medium, single repeats): 33%
# embryoids ([3]; 2-HNA 500 mg/l, mean): 66
green plant (%) ([3]; 2-HNA 500 mg/l, mean): 33%
green plant (%) ([3]; 2-HNA 1000 mg/l, % of embryoids transferred to regeneration medium, single repeats): 40% and 22%
# embryoids ([3]; 2-HNA 1000 mg/l, mean): 768
green plant (%) ([3]; 2-HNA 1000 mg/l, mean): 31%
2-HNA concentration at which number of induced embryoids and percentage of regenerated green plants were highest ([3]; tested 0, 100, 500 or 1000 mg/l): 100 mg/L
